Values of other authors, collected in patent US6767992B1 (PTC Pharma AG, priority 2001, dated 2004).

System: RPMI 8322 melanoma cells

L-prolyl-L-m-sarcolysyl-L-p-fluorophenylalanine [PSF]
times more toxic than m-sarcolysine (relative to m-sarcolysine): 28 times | times more toxic than melphalan (relative to melphalan): 35 times
